Assays:
[1] = target: T1, NS3 genotype 3a protease (UniProt Q81258); assay: Ki determination, NS3 protease genotype 3a (fluorogenic depsipeptide substrate); assay type: biochemical, hepatitis C virus; conditions: NS3 protease domain genotype 3a, NS4A peptide
T1 construct: Purified NS3 protease domain (amino acids 1-181) of the genotype 1b and 3a virus were generated as above; fused on or other part: N-terminal hexahistidine tag with an rTEV protease cleavage site (vector p28-N6H-Tev-NS3(181)3)
T1 sequence (Q81258 1033-1663): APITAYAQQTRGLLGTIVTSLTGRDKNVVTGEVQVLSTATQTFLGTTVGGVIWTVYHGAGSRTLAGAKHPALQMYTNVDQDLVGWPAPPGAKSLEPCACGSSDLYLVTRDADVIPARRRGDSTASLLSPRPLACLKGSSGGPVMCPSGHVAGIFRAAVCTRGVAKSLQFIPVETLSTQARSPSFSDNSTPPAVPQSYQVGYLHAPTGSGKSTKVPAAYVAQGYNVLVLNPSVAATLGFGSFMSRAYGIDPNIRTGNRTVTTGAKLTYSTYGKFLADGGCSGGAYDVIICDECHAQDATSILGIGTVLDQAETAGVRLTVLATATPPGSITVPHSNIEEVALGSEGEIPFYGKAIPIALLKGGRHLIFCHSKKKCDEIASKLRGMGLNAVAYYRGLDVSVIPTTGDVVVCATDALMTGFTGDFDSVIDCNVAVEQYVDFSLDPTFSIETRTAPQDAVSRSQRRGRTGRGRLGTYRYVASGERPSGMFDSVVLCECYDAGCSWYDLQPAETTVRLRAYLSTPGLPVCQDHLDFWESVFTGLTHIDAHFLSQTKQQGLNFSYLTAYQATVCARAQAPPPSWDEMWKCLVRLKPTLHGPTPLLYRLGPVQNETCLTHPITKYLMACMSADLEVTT
Text: Ki Determination for Genotypes 1b and 3a NS3 Protease.
Purified NS3 protease domain (amino acids 1-181) of the genotype 1b and 3a virus were generated as above. The internally quenched fluorogenic depsipeptide substrate Ac-DED(Edans)-EEAbuψ[COO]ASK(Dabcyl)-NH2 and a synthetic peptide containing the hydrophobic core residues of the NS4A protein cofactor ([…]; NS4A peptide) were obtained from Anaspec, Inc. (San Jose, Calif.). Other chemicals and biochemicals were of reagent grade or better and were purchased from standard suppliers.
Reactions were run at room temperature in buffer consisting of 50 mM HEPES, 40% glycerol, 0.05% Triton X-100, 10 mM DTT, and 10% DMSO. The final assay solutions contained 50 pM NS3 genotype 1b protease or 200 pM genotype 3a protease, 20 μM NS4A peptide, and 4 μM substrate (genotype 1b) or 2 μM substrate (genotype 3a). Inhibitor concentrations varied from 100 nM to 5 pM in 3-fold dilutions, and no-inhibitor controls were included.
Compound dilutions were made in DMSO at 20× final concentration. Reaction mixtures were prepared in 96-well assay plates. A solution of enzyme and NS4A peptide in assay buffer (25 μL volume with both reagents at 4× final concentration) was mixed with 45 μL assay buffer and 5 μL of either inhibitor or DMSO, and pre-incubated at room temperature for 1 hour. The reaction was started by addition of 25 μL substrate solution at 4× final concentration. Plates were mixed vigorously for 5-10 seconds and reactions were allowed to proceed for 90 minutes. Fluorescence was measured every 30 s between 90 and 120 minutes reaction time using a Tecan InfiniTe M1000 or PerkinElmer Envision multimode plate reader with an excitation wavelength of 340 nm and an emission wavelength of 490 nm.
Rates were calculated from the progress curves at steady state, in the time frame of 90-120 minutes after addition of substrate. To determine the Ki, rates were plotted as a function of inhibitor concentration, and the data were fit with equation 1 (Morrison, J. F., Biochimica et Biophysica Acta 1969, 185, 269-286) to calculate Ki^app using GraphPad Prism 5. Active fraction of enzyme was determined by active site titration with known potent inhibitors. Ki was calculated from Ki^app/(1+[[S]/Km]).

[2] = test system: genotype 1b wild-type transient HCV replicon in Huh-7-derived cells; assay: Transient-transfected HCV replicon, genotype 1b wild type; assay type: cell-based; conditions: Hepatitis C virus; transient-transfected replicon genotype 1b wild type, 72 h; read-out: EC50 1B WT
[3] = test system: genotype 3a stable HCV replicon (S52) in Huh-7-derived cells; assay: Stable subgenomic HCV replicon, genotype 3a, Renilla luciferase; assay type: cell-based; conditions: Hepatitis C virus, 72 h, read-out: EC50 3A RLUC
Protocol: (§1) Antiviral potency (EC50) was determined in both stable subgenomic HCV replicon cell lines and transient-transfected HCV replicon cells. The term half maximal effective concentration (EC50) refers to the concentration of a drug which induces a response halfway between the baseline and maximum after the exposure time specified below.
(§2) Stable subgenomic HCV replicons for genotype 1a, 1b, 2a, 3a, and 4a were established in Huh-7-derived cells as described by Lohmann et al (Lohmann V, Korner F, Koch J, et al Replication of subgenomic hepatitis C virus RNAs in a hepatoma cell line. Science 1999; 285:119-3). Each stable cell line contains a bicistronic HCV replicon that encodes a humanized Renilla luciferase (hRLuc) reporter gene fused to a selectable neomycin-resistance gene, followed by an EMCV IRES and the NS3-NS5B coding region of HCV. […] Luciferase activity was measured as a marker for intracellular HCV replication levels.
(§3) The genotype 1a stable replicon was derived from the H77 HCV strain and contained adaptive mutations P1496L and S2204I. The genotype 1b stable replicon was derived from the Con1 HCV strain and contained adaptive mutations E1202G, T1280I, and K1846T. […] The genotype 3a stable replicon was derived from the S52 HCV strain and contained adaptive mutations P1121 L, A1198T and S2210I (equivalent to S2204I in genotype 1). The genotype 4a stable replicon was derived from the ED43 HCV strain and contained adaptive mutations Q1691R and S2204I. All replicon cell lines were propagated in Huh-7-derived cells and maintained in Dulbecco's modified Eagle's Medium (DMEM) supplemented with 10% fetal bovine serum (FBS) and 0.5 mg/ml G418.
(§4) To perform EC50 assays, cells from each HCV replicon were dispensed into 384-well plates. Compounds were dissolved in DMSO at a concentration of 10 mM and diluted in DMSO using an automated pipetting instrument. Three-fold serially diluted compounds were directly added to the cells using an automated instrument. DMSO was used as a negative (solvent; no inhibition) control, and a combination of three HCV inhibitors including a protease inhibitor; an NS5A inhibitor and a nucleoside inhibitor was used at concentrations >100×EC50 as a positive control (100% inhibition). Seventy-two hours later, cells were lysed and Renilla luciferase activity were quantified as recommended by the manufacturer (Promega-Madison, Wis.). Non-linear regression was performed to calculate […], values.

[4] = test system: genotype 1a stable HCV replicon (H77) in Huh-7-derived cells; assay: Stable subgenomic HCV replicon, genotype 1a, Renilla luciferase; assay type: cell-based; conditions: Hepatitis C virus, stable replicon genotype 1a, 72 h, read-out: EC50 1A RLUC
Protocol: as §1, §2, §3, §4

[5] = test system: genotype 1a (H77) wild-type transient HCV replicon in Huh-7-derived cells; assay: Transient-transfected HCV replicon, genotype 1a wild type; assay type: cell-based; conditions: Hepatitis C virus; transient-transfected replicon genotype 1a wild type, 72 h; read-out: EC50 1A WT

| Compound | Ki [1] [nM] | EC50 [2] [nM] | EC50 [3] [nM] | EC50 [4] [nM] | EC50 [5] [nM] |
| --- | --- | --- | --- | --- | --- |
| COc1ccc2nc3c(nc2c1)O[C@@H]1C[C@@H](C(=O)N[C@]2(C(=O)NS(=O)(=O)C4CC4)C[C@H]2C(F)F)N(C1)C(=O)[C@H](C(C)(C)C)NC(=O)O[C@H]1[C@H](CCCCC3)C[C@H]2C[C@H]21 [Example 7, (1aR,1bS,5S,8S,10R,22aR,23aR)-5-tert-butyl-N-[(1R,2R)-1-[(cyclopropylsulfonyl)carbamoyl]-2-(difluoromethyl)cyclopropyl]-14-methoxy-3,6-dioxo-1a,1b,3,4,5,6,9,10,18,19,20,21,22,22a,23,23a-hexadecahydro-1H,8H-7,10-methanocyclopropa[3′,40]cyclopenta[1′,2′:18,19][1,10,3,6]dioxadiazacyclononadecino[11,12-b]quinoxaline-8-carboxamide] | 9.5 | 53 | 3300 | 95 | 72 |
| CC(C)(C)[C@@H]1NC(=O)O[C@@H]2C[C@@H]3C[C@@H]3[C@H]2CCCCC(F)(F)c2nc3ccccc3nc2O[C@@H]2C[C@@H](C(=O)N[C@]3(C(=O)NS(=O)(=O)C4CC4)C[C@H]3C(F)F)N(C2)C1=O [Example 18] | 0.02 | 1.6 | 18 | 4.8 | 3.6 |
| CC(C)(C)[C@@H]1NC(=O)O[C@@H]2C[C@@H]3C[C@@H]3[C@H]2CCCCC(F)(F)c2nc3ccc(OC(F)F)cc3nc2O[C@@H]2C[C@@H](C(=O)N[C@]3(C(=O)NS(=O)(=O)C4CC4)C[C@H]3C(F)F)N(C2)C1=O [Example 16, (1aS,2aR,6S,9S,11R,23aR,23bS)-6-tert-butyl-N-[(1R,2R)-1-[(cyclopropylsulfonyl)carbamoyl]-2-(difluoromethyl)cyclopropyl]-15-(difluoromethoxy)-19,19-difluoro-4,7-dioxo-1a,2,2a,4,5,6,7,10,11,19,20,21,22,23,23a,23b-hexadecahydro-1H,9H-8,11-methanocyclopropa[4′,5′]cyclopenta [1′,2′:18,19][1,10,3,6]dioxadiazacyclononadecino[11,12-b]quinoxaline-9-carboxamide] | 0.13 | 1.6 | 127 | 3.8 | 1.8 |
| COc1ccc2nc3c(nc2c1)O[C@@H]1C[C@@H](C(=O)N[C@]2(C(=O)NS(=O)(=O)C4(C)CC4)C[C@H]2C(F)F)N(C1)C(=O)[C@H](C(C)(C)C)NC(=O)O[C@@H]1C[C@@H]2C[C@@H]2[C@H]1CCCCC3 [Example 2, (1aS,2aR,6S,9S,11R,23aR,23bS)-6-tert-butyl-N-[(1R,2R)-2-(difluoromethyl)-1-{[(1-methylcyclopropyl)sulfonyl]carbamoyl}cyclopropyl]-15-methoxy-4,7-dioxo-1a,2,2a,4,5,6,7,10,11,19,20,21,22,23,23a,23b-hexadecahydro-1H,9H-8,11-methanocyclopropa[4′,5′]cyclopenta[1′,2′18,19][1,10,3,6]dioxadiazacyclononadecino[11,12-b]quinoxaline-9-carboxamide] | 0.04 | 0.74 | 17 | 1.1 | 1.1 |
| COc1ccc2nc3c(nc2c1)O[C@@H]1C[C@@H](C(=O)N[C@]2(C(=O)NS(=O)(=O)C4(C)CC4)C[C@H]2CC(F)F)N(C1)C(=O)[C@H](C(C)(C)C)NC(=O)O[C@@H]1C[C@@H]2C[C@@H]2[C@H]1CCCCC3(F)F [Example 20, (1aS,2aR,6S,9S,11R,23aR,23bS)-6-tert-butyl-N-[(1R,2S)-2-(2,2-difluoroethyl)-1-{[(1-methylcyclopropyl)sulfonyl]carbamoyl}cyclopropyl]-19,19-difluoro-15-methoxy-4,7-dioxo-1a,2,2a,4,5,6,7,10,11,19,20,21,22,23,23a,23b-hexadecahydro-1H,9H-8,11-methanocyclopropa[4′,5′]cyclopenta[1′,2′:18,19][1,10,3,6]dioxadiazacyclononadecino[11,12-b]quinoxaline-9-carboxamide] | 0.07 | 4.1 | 46 | 6 | 5.2 |
| COc1ccc2nc3c(nc2c1)O[C@@H]1C[C@@H](C(=O)N[C@]2(C(=O)NS(=O)(=O)C4(C)CC4)C[C@H]2C(F)F)N(C1)C(=O)[C@H](C(C)(C)C)NC(=O)O[C@@H]1C[C@@H]2C[C@@H]2[C@H]1CCCCC3(F)F [Example 10, (1aS,2aR,6S,9S,11R,23aR,23bS)-6-tert-butyl-N-[(1R,2R)-2-(difluoromethyl)-1-{[(1-methylcyclopropyl)sulfonyl]carbamoyl}cyclopropyl]-19,19-difluoro-15-methoxy-4,7-dioxo-1a,2,2a,4,5,6,7,10,11,19,20,21,22,23,23a,23b-hexadecahydro-1H,9H-8,11-methanocyclopropa [4′,5′]cyclopenta[1′,2′:18,19][1,10,3,6]dioxadiazacyclononadecino[11,12-b]quinoxaline-9-carboxamide] | 0.02 | 0.75 | 4.9 | 1.6 | 1.4 |
| CC(C)(C)[C@@H]1NC(=O)O[C@@H]2C[C@@H]3C[C@@H]3[C@H]2CCCCC(F)(F)c2nc3ccccc3nc2O[C@@H]2C[C@@H](C(=O)N[C@]3(C(=O)NS(=O)(=O)C4(C)CC4)C[C@H]3C(F)F)N(C2)C1=O [Example 17] | 0.02 | 1.3 | 26 | 5.8 | 3.3 |
